Source: patent US12544374B2, “AZA-quinoline compounds and uses thereof” (Novartis AG, priority 2019, dated 2026)

Experiments:
[1] = target: wild type PRC2 (wtPRC2) complex (Homo sapiens (Human), UniProt Q15910); assay: EZH2 LC-MS assay (LC-Qualified); assay type: biochemical; conditions: (a) LC-Qualified assay
Protocol: Representative compounds of the invention were serially and separately diluted 3-fold in DMSO to obtain twelve concentrations. […] Solutions (6 μL) of 80 nM wild type PRC2 (wtPRC2) complex and 60 μM SAM in reaction buffer (20 mM Tris, pH 8.0, 0.1% BSA, 0.01% Triton, 0.5 mM DTT) were added to the wells that were then incubated with the test compound for 20 min. A 6 μL solution of 3 μM of the substrate peptide H3K27me1 (histone H3[21-44]-K27me1-biotin) and 6 μM regulatory peptide H3K27me3 (histone H3[21-44]-K27me3) in reaction buffer was added to initiate each reaction. […] The data were fit to a dose response equation using the program Helios to get the IC50 values of the test compound.

[2] = target: EZH2 (Homo sapiens (Human), UniProt Q15910); assay: ELISA (H3K27 methylation) assay in G401 cell; assay type: cell-based; conditions: (b) ELISA Qualified assay, 48 h
Sequence of EZH2 (Q15910 whole entry): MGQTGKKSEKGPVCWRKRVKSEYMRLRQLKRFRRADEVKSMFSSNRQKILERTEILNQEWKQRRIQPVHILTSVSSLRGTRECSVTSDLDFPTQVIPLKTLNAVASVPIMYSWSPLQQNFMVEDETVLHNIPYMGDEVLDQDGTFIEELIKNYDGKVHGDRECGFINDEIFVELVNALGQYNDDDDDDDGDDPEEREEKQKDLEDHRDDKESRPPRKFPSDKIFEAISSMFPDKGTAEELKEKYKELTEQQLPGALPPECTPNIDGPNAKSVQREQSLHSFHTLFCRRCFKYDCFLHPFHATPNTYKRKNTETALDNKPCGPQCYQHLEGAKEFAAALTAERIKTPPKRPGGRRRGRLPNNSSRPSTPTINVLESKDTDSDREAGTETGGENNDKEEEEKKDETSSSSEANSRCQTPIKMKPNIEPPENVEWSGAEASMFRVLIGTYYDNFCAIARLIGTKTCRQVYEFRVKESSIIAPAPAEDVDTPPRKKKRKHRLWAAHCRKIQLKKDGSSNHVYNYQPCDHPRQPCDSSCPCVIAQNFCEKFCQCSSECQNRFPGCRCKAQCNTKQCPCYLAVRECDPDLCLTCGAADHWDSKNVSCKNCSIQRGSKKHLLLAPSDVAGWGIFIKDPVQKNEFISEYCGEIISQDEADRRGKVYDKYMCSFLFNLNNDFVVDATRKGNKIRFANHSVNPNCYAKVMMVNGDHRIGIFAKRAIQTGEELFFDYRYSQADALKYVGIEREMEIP
Sequence of EZH2 (Q15022 whole entry partner): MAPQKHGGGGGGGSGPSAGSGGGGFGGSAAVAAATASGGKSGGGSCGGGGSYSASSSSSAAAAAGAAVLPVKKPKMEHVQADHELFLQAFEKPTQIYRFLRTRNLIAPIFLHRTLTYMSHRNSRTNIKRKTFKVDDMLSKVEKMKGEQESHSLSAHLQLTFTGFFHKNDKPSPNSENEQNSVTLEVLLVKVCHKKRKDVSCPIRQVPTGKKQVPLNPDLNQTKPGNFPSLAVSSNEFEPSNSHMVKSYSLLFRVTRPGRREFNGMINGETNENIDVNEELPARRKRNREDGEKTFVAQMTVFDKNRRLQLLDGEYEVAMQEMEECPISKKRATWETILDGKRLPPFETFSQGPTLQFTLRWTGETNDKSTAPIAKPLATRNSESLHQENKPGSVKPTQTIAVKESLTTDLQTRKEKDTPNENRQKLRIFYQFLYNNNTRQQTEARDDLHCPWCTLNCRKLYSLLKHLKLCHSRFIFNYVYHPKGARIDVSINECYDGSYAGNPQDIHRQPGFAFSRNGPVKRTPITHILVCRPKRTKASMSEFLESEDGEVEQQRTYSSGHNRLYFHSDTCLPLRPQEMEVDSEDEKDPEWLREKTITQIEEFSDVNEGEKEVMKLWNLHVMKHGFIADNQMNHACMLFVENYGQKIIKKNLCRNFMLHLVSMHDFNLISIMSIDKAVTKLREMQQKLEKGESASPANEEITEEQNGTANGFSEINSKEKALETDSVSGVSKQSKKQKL
Sequence of EZH2 (O75530 whole entry partner): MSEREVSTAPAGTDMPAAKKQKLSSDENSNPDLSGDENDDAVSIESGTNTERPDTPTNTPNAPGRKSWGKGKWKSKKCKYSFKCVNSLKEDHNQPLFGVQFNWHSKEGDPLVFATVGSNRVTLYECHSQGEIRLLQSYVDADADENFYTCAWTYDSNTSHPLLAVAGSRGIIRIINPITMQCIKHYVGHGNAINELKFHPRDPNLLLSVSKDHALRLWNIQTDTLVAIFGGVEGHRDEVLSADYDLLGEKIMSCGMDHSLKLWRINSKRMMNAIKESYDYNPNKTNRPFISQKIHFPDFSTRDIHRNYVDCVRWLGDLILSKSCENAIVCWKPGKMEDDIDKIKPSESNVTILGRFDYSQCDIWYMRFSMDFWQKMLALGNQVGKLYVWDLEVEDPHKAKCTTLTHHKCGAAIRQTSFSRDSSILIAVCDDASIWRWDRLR
Sequence of EZH2 (Q09028 whole entry partner): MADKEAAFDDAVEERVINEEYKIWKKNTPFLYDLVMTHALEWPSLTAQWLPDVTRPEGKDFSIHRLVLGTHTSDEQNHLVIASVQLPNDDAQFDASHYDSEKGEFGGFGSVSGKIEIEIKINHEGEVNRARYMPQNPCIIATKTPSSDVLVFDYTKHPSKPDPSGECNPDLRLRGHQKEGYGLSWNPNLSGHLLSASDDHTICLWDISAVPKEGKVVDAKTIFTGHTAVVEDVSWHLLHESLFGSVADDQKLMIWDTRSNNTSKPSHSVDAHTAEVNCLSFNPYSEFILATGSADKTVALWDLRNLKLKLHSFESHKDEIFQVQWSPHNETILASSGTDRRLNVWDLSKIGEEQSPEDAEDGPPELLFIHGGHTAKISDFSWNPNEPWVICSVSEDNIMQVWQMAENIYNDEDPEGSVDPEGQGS
Protocol: Representative compounds of the invention were serially and separately diluted 3-fold in DO to obtain a total of eight or twelve concentrations. Then the compounds were added to G401 cell cultured in 384-well plate at 1:500 dilution to obtain the highest concentration of 20 μM. The cells were further cultured for 48 h before ELISA procedure.
ELISA protocol: Cell lysates were transferred to the wells of a 384-well plate and the final volume was adjusted to 50 μL per well with PBS. The plate was sealed, centrifuged at 2,000 rpm for 2 min and incubated at 4° C. for about 16 h. The plate was washed with TBST buffer (1×TBS (10×TBS: 24.2 g Tris (Sigma, T6066), 80 g NaCl (Sigma, S3014) to 1 L of water and adjust pH to 7.6 with HCl) with 0.1% Tween-20). Blocking buffer (TBST, 5% BSA; 50 μL per well) was added and the plate was incubated for 1 h at rt. The blocking buffer was removed and primary antibody was added (30 μL per well). […] The primary antibody was incubated in the plate at rt for 1 h. The wells were washed with TBST and incubated with secondary antibody for 1 h at rt.
After 1 h of incubation at rt, the wells were washed with TBST. […] The signal was read using a PerkinElmer Envision Reader. The H3K27 methylation readouts were normalized using H3 signal and then percentage inhibition was calculated against the samples treated with DO. The data were fit to a dose response curve using the program Helios to get the IC50 values of the test compound.

Sequence of wild type PRC2 (wtPRC2) complex (Q15910 whole entry): as the sequence (Q15910 whole entry) above
Sequence of wild type PRC2 (wtPRC2) complex (Q15022 whole entry partner): as the sequence (Q15022 whole entry partner) above
Sequence of wild type PRC2 (wtPRC2) complex (O75530 whole entry partner): as the sequence (O75530 whole entry partner) above
Sequence of wild type PRC2 (wtPRC2) complex (Q09028 whole entry partner): as the sequence (Q09028 whole entry partner) above
Sequence of wild type PRC2 (wtPRC2) complex (Q6ZN18 whole entry partner): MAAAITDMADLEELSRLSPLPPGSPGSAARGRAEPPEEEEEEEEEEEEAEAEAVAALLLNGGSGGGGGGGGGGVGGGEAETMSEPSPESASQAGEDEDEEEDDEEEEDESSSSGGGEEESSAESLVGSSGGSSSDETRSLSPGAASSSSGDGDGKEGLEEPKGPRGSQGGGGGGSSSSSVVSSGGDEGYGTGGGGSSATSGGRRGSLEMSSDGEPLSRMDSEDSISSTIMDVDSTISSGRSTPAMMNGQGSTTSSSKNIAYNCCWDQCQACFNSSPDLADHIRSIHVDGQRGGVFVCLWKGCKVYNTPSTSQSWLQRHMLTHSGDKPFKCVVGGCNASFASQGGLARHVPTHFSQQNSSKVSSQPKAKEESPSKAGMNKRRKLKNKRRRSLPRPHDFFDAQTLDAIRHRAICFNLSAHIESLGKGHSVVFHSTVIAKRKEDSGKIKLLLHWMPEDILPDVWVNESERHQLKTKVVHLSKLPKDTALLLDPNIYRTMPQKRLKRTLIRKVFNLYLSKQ

| SMILES | IC50 [1] [µM] | IC50 [2] [µM] |
| --- | --- | --- |
| O=S1(=O)CCN(Cc2cnc(NC[C@H]3CC[C@H](Nc4ccc5ccnc(Cl)c5n4)CC3)nc2)CC1 [Compound C30, 4-((2-((((1,4-trans)-4-((8-chloro-1,7-naphthyridin-2-yl)amino)cyclohexyl)methyl)amino)pyrimidin-5-yl)methyl)thiomorpholine 1,1-dioxide] | 0.017 | 0.007 |
| Clc1nccc2ccc(N[C@H]3CC[C@H](CNc4ncc(CNCC5COC5)cn4)CC3)nc12 [Compound C31, 8-chloro-N-((1,4-trans)-4-(((5-(((oxetan-3-ylmethyl)amino)methyl)pyrimidin-2-yl)amino)methyl)cyclohexyl)-1,7-naphthyridin-2-amine] | 0.026 | 0.06 |
| COC1CC(NCc2cnc(NC[C@H]3CC[C@H](Nc4ccc5ccnc(Cl)c5n4)CC3)nc2)C1 (stereo partly drawn) [Compound C32, 8-chloro-N-((1,4-trans)-4-(((5-(((3-methoxycyclobutyl)amino)methyl)pyrimidin-2-yl)amino)methyl)cyclohexyl)-1,7-naphthyridin-2-amine] | 0.079 | 0.498 |
| OC1CC(NCc2cnc(NC[C@H]3CC[C@H](Nc4ccc5ccnc(Cl)c5n4)CC3)nc2)C1 (stereo partly drawn) [Compound C33, 3-(((2-((((1,4-trans)-4-((8-chloro-1,7-naphthyridin-2-yl)amino)cyclohexyl)methyl)amino)pyrimidin-5-yl)methyl)amino)cyclobutan-1-ol] | 0.042 | 0.044 |
| O=C(Cc1cnc(NC[C@H]2CC[C@H](Nc3ccc4ccnc(Cl)c4n3)CC2)nc1)N1CC(O)C1 [Compound C38, 2-(2-((((1,4-trans)-4-((8-chloro-1,7-naphthyridin-2-yl)amino)cyclohexyl)methyl)amino)pyrimidin-5-yl)-1-(3-hydroxyazetidin-1-yl)ethan-1-one] | 0.024 | 0.029 |
| CN(C)C1CCN(C(=O)Cc2cnc(NC[C@H]3CC[C@H](Nc4ccc5ccnc(Cl)c5n4)CC3)nc2)C1 (stereo partly drawn) [Compound C39, 2-(2-((((1,4-trans)-4-((8-chloro-1,7-naphthyridin-2-yl)amino)cyclohexyl)methyl)amino)pyrimidin-5-yl)-1-(3-(dimethylamino)pyrrolidin-1-yl)ethan-1-one] | 0.081 | 0.02 |
| O=C(Cc1cnc(NC[C@H]2CC[C@H](Nc3ccc4ccnc(Cl)c4n3)CC2)nc1)N1CCN(CCO)CC1 [Compound C40, 2-(2-((((1,4-trans)-4-((8-chloro-1,7-naphthyridin-2-yl)amino)cyclohexyl)methyl)amino)pyrimidin-5-yl)-1-(4-(2-hydroxyethyl)piperazin-1-yl)ethan-1-one] | 0.046 | 0.028 |
| O=C(Cc1cnc(NC[C@H]2CC[C@H](Nc3ccc4ccnc(Cl)c4n3)CC2)nc1)N1CCNCC1 [Compound C41, 2-(2-((((1,4-trans)-4-((8-chloro-1,7-naphthyridin-2-yl)amino)cyclohexyl)methyl)amino)pyrimidin-5-yl)-1-(piperazin-1-yl)ethan-1-one] | 0.035 | 0.031 |
| CN1CCN(C(=O)Cc2cnc(NC[C@H]3CC[C@H](Nc4ccc5ccnc(Cl)c5n4)CC3)nc2)CC1 [Compound C43, 2-(2-((((1,4-trans)-4-((8-chloro-1,7-naphthyridin-2-yl)amino)cyclohexyl)methyl)amino)pyrimidin-5-yl)-1-(4-methylpiperazin-1-yl)ethan-1-one] | 0.057 | 0.067 |
| O=C(Cc1cnc(NC[C@H]2CC[C@H](Nc3ccc4ccnc(Cl)c4n3)CC2)nc1)NC1CCC1 [Compound C44, 2-(2-((((1,4-trans)-4-((8-chloro-1,7-naphthyridin-2-yl)amino)cyclohexyl)methyl)amino)pyrimidin-5-yl)-N-cyclobutylacetamide] | 0.054 | 0.163 |
| OCCc1cnc(NC[C@H]2CC[C@H](Nc3ccc4ccnc(Cl)c4n3)CC2)nc1 [Compound C46, 2-(2-((((1,4-trans)-4-((8-chloro-1,7-naphthyridin-2-yl)amino)cyclohexyl)methyl)amino)pyrimidin-5-yl)ethan-1-ol] | 0.012 | 0.013 |
| CC1(NCCc2cnc(NC[C@H]3CC[C@H](Nc4ccc5ccnc(Cl)c5n4)CC3)nc2)COC1 [Compound C47, 8-chloro-N-((1,4-trans)-4-(((5-(2-((3-methyloxetan-3-yl)amino)ethyl)pyrimidin-2-yl)amino)methyl)cyclohexyl)-1,7-naphthyridin-2-amine] | 0.051 | 0.032 |
| Clc1nccc2ccc(N[C@H]3CC[C@H](CNc4ncc(CCNC5COC5)cn4)CC3)nc12 [Compound C48, 8-chloro-N-((1,4-trans)-4-(((5-(2-(oxetan-3-ylamino)ethyl)pyrimidin-2-yl)amino)methyl)cyclohexyl)-1,7-naphthyridin-2-amine] | 0.039 | 0.027 |
| CCN(CCC#N)C(=O)Cc1cnc(NC[C@H]2CC[C@H](Nc3ccc4ccnc(Cl)c4n3)CC2)nc1 [Compound C50, 2-(2-((((1,4-trans)-4-((8-chloro-1,7-naphthyridin-2-yl)amino)cyclohexyl)methyl)amino)pyrimidin-5-yl)-N-(2-cyanoethyl)-N-ethylacetamide] | 0.023 | 0.027 |
| O=C(NCc1cnc(NC[C@H]2CC[C@H](Nc3ccc4ccnc(Cl)c4n3)CC2)nc1)C1CCN1 (stereo partly drawn) [Compound C58, N-((2-((((1,4-trans)-4-((8-chloro-1,7-naphthyridin-2-yl)amino)cyclohexyl)methyl)amino)pyrimidin-5-yl)methyl)azetidine-2-carboxamide] | 0.038 | 0.117 |
| O=C(NCc1cnc(NC[C@H]2CC[C@H](Nc3ccc4ccnc(Cl)c4n3)CC2)nc1)C1COC1 [Compound C59, N-((2-((((1,4-trans)-4-((8-chloro-1,7-naphthyridin-2-yl)amino)cyclohexyl)methyl)amino)pyrimidin-5-yl)methyl)oxetane-3-carboxamide] | 0.045 | 0.033 |
| CNc1nccc2ccc(N[C@H]3CC[C@H](CNc4ncc(C#N)cn4)CC3)nc12 [Compound C60, 2-((((1,4-trans)-4-((8-(methylamino)-1,7-naphthyridin-2-yl)amino)cyclohexyl)methyl)amino)pyrimidine-5-carbonitrile] | 0.022 | 0.021 |
| CNc1nccc2ccc(N[C@H]3CC[C@H](CNc4ncc(N)cn4)CC3)nc12 [Compound C62, N^2-((1,4-trans)-4-(((5-aminopyrimidin-2-yl)amino)methyl)cyclohexyl)-N^8-methyl-1,7-naphthyridine-2,8-diamine] | 0.149 | 0.031 |
| CNc1nccc2ccc(N[C@H]3CC[C@H](CNc4ncc(NC(C)=O)cn4)CC3)nc12 [Compound C63, N-(2-((((1,4-trans)-4-((8-(methylamino)-1,7-naphthyridin-2-yl)amino)cyclohexyl)methyl)amino)pyrimidin-5-yl)acetamide] | 0.096 | 0.037 |
| O=C1OCCN1c1cnc(NC[C@H]2CC[C@H](Nc3ccc4ccnc(Cl)c4n3)CC2)nc1 [Compound C64, 3-(2-((((1,4-trans)-4-((8-chloro-1,7-naphthyridin-2-yl)amino)cyclohexyl)methyl)amino)pyrimidin-5-yl)oxazolidin-2-one] | 0.053 | 0.054 |
| COC(=O)N(C)c1cnc(NC[C@H]2CC[C@H](Nc3ccc4ccnc(Cl)c4n3)CC2)nc1 [Compound C65, Methyl (2-((((1,4-trans)-4-((8-chloro-1,7-naphthyridin-2-yl)amino)cyclohexyl)methyl)amino)pyrimidin-5-yl)(methyl)carbamate] | 0.059 | 0.065 |
| Nc1cnc(NC[C@H]2CC[C@H](Nc3ccc4ccnc(OC(F)F)c4n3)CC2)nc1 [Compound C66, N^2-(((1,4-trans)-4-((8-(difluoromethoxy)-1,7-naphthyridin-2-yl)amino)cyclohexyl)methyl)pyrimidine-2,5-diamine] | 0.204 | 0.16 |
| Clc1nccc2ccc(N[C@H]3CC[C@H](CNc4ncc(-c5nnc[nH]5)cn4)CC3)nc12 [Compound C67, N-((1,4-trans)-4-(((5-(4H-1,2,4-triazol-3-yl)pyrimidin-2-yl)amino)methyl)cyclohexyl)-8-chloro-1,7-naphthyridin-2-amine] | 0.029 | 0.036 |
| CC(CO)Oc1cnc(NC[C@H]2CC[C@H](Nc3ccc4ccnc(Cl)c4n3)CC2)nc1 (stereo partly drawn) [Compound C68, 2-((2-((((1,4-trans)-4-((8-chloro-1,7-naphthyridin-2-yl)amino)cyclohexyl)methyl)amino)pyrimidin-5-yl)oxy)propan-1-ol] | 0.049 | 0.018 |
